Source: patent US20210252036A1, “METHODS OF TREATING CANCER BY INHIBITING UBIQUITIN CONJUGATING ENZYME E2 K (UBE2K)” (Berg LLC, priority 2018, published 2021)
Read-outs that look alike come from different tables or passages of the source.

Experiments:
UBE2K = molecular target: T1, UBE2K (Homo sapiens, UniProt P61086); conditions: Strickson et al., 2013; cited from earlier work
T1 sequence (P61086 1-200): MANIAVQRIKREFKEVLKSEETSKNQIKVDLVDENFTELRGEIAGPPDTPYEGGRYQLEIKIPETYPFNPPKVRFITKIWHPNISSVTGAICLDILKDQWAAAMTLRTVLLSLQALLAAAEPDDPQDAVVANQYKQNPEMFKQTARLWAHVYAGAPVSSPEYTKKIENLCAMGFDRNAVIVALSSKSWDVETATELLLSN

BT549 cells = test: Cell number/viability by Cell Titer Fluor after siRNA transfection; format: cell-based; conditions: Homo sapiens, BT-549, doxorubicin 72 h
Protocol: (§1) For initial validation studies, UBE2K was transiently knocked down using an siRNA mediated approach in Miapaca2, HepG2, SKHEP1, Hep3B, MDAMB231, SKBR3, T47D and BT549 cells. A non-targeting (NT) siRNA sequence was used as a control. Samples for confirmation of knock down at transcript and protein level were harvested 24 and 96 h post transfection, and the effect of UBE2K transient knock down was assessed on cell viability/cell number using Cell Titer Fluor at 96 h post transfection. In parallel, the effect of siRNA mediated UBE2K knock down on doxorubicin (cell death causing agent) sensitivity was assessed in the above mentioned cell lines. Cell were exposed to doxorubicin for 72 h beginning 24 h post transfection.

[1] = system: SKHEP1 hepatocellular carcinoma cells; test: as above; format: cell-based; conditions: Homo sapiens, SK-HEP1, doxorubicin 72 h
Protocol: as §1

T47D cells = test: as above; format: cell-based; conditions: Homo sapiens, doxorubicin 72 h
Protocol: as §1

SMILES | Loading of ubiquitin onto E2 conjugating enzymes such as UBE2K (UBE2K) | IC50 (BT549 cells; BT549, UBE2K siRNA knockdown, read-out: UBE2K siRNA 95% CI IC50) | IC50 (BT549 cells; BT549, control siRNA, read-out: Control siRNA 95% CI KSO) | IC50 ([1]; SKHEP1, UBE2K siRNA knockdown, read-out: UBE2K siRNA 95% CI IC50) | IC50 ([1]; SKHEP1, control siRNA, read-out: Control siRNA 95% CI KSO) | IC50 (T47D cells; UBE2K siRNA knockdown, read-out: UBE2K siRNA 95% CI IC50) | IC50 (T47D cells; control siRNA, read-out: Control siRNA 95% CI KSO)
Cc1ccc(S(=O)(=O)/C=C/C#N)cc1 [BAY 11-7082, (E)3-[(4-Methylphenyl)sulfonyl]-2-propenenitrile] | inhibit the loading of ubiquitin onto E2 conjugating enzymes |  |  |  |  |  | 
COc1cccc2c1C(=O)c1c(O)c3c(c(O)c1C2=O)C[C@@](O)(C(=O)CO)C[C@@H]3O[C@H]1C[C@H](N)[C@H](O)[C@H](C)O1 [doxorubicin] |  | 91.2 to 243 nM | 165 to 381 nM | 10.1 to 13.7 nM | 8.58 to 11.3 nM | 96.1 to 220 nM | 112 to 290 nM
